# Test results from patent US4552882A, “7-(1-Pyrrolyl) derivatives of 1-ethyl-1,4-dihydro-4-oxoquinoline-3-carboxylic acids and 1-ethyl-1,4-dihydro-4-oxo-1,8-naphthyridine-3-carboxylic acids and their use as antimicrobial agents” (Provesan, SA, priority 1983, dated 1985).
# Test: in vivo
# Settings: mouse, ip
# Description: To determine this toxicity, C.F.L.P. strain albino mice of both sexes, weighing between 19 and 25 grams, have been used as experimental animals. After an 18 hour fast period with water "ad libitum" the derivatives which are the subjects of the present invention are administered intraperitoneally in 5% suspension in gum arabic. The volume of suspension administered has in all cases been 0.4 ml/20 grams (20 ml/kg), changing the concentration of the suspension according to the dose administered.
# One hour after the administration of the derivatives, the animals are supplied with Panlab standard rat-mouse feed. The period of observation of mortality has been 7 days.
smiles,measurement,value
"CCn1cc(C(=O)O)c(=O)c2ccc(C)nc21 [Nalidixic acid, reference compound]",LD50 at 168 h,600 mg/kg
